Assays:
Assay type in all cases: cell-based, human
[1] = test system: cyclin B1 and p34-cdc2 kinase; assay: Immunoblot of cyclins, cyclin-associated kinases, inhibitors, p53; settings: M1619
Protocol: The effect of antioxidants on expression of cell cyclins, cyclin-associated kinases, cell cycle inhibitors and IκBα was studied by incubating near confluent cell cultures with antioxidant treatments for 15 min-48 hours. Cells were lysed and protein levels were measured by immunoblot assay as described below. In other experiments, the ratio of phosphorylated-IκBα to total IκBα was determined by harvest of cytosolic protein 24 hours after treating cultures with 3,000 U/ml catalase.
Immunoassay for Proteins. Cells were lysed and proteins were isolated and quantitated by immunoassay as previously detailed, using 2 μg/ml of primary rabbit polyclonal antibodies against human p53, the cyclins D1, E, A and B1, the cyclin-associated kinases cdk2 and cdc2, the cyclin kinase inhibitors p21^WAF1/Cip1 and p27, and peroxidase-labeled donkey polyclonal anti-rabbit IgG. […] Cells were placed on ice, washed twice with cold DPBS, scraped into 0.5 ml boiling buffer (10% [vol/vol] glycerol and 2% [wt/vol] sodium dodecyl sulfate [SDS] in 83 mM Tris, pH 6.8) and sheared by four passages through a pipette. Aliquots were removed for protein determination, using the BCA protein assay (Pierce). […] Immunoblots were rinsed again as above and detected using an enhanced chemiluminescence method (ECL Western blotting detection system, Amersham Life Science, Buckinghamshire, England) and autoradiography. […]

NF-κB [2] = assay: EMSA of constitutive nuclear NF-κB DNA binding, LNCaP; settings: LNCaP prostate carcinoma; catalase 3,000 U/ml for 24 hours
Protocol: (§1) The effect of antioxidants on nuclear activation of NF-κB was studied by incubating near confluent (70%) cell cultures with antioxidant treatments for 1-48 hours. Nuclear protein was harvested, and EMSAs were performed using DNA consensus binding sequences, or nuclear translocation of the p65 component of NF-κB was studied by immunoperoxidase staining, as outlined below.
(§2) Electrophoretic Mobility Shift Assays (EMSAs). Nuclear protein was isolated and DNA binding reactions were performed as previously described in detail, Kennedy et al., Am. J. Respir. Cell Mol. Biol. 19:366-378 (1998). Monolayers were washed twice in cold DPBS and equilibrated 10 min on ice with 0.7 ml cold cytoplasmic extraction buffer, CEB (10 mM Tris, pH 7.9, 60 mM KCl, 1 mM EDTA, 1 mM DTT) with protease inhibitors, PI (1 mM Pefabloc, 50 μg/ml antipain, 1 μg/ml leupeptin, 1 μg/ml pepstatin, 40 μg/ml bestatin, 3 μg/ml E-64 and 100 μg/ml chymostatin). […] DNA-protein binding reactions were performed with 2 μg of nuclear protein (as determined by the Pierce method) and 30-80,000 cpm of ^32P-end-labelled double-stranded DNA probe in 10 mM Tris-HCl, pH 7.5, 50 mM NaCl, 0.5 mM EDTA, 0.5 mM DTT, 1 mM MgCl2, 50 μg/ml poly dI-dC, and 4% glycerol. […] Gels were dried and analyzed by autoradiography at −80° C. using an image intensifier screen. […]

NF-κB [3] = assay: EMSA of constitutive nuclear NF-κB DNA binding, M1585; settings: M1585 melanoma; catalase 3,000 U/ml for 24 hours
Protocol: as §1, §2

## Catalase
[1]; 3,000 U/ml catalase
  expression of cyclin B1 and its associated kinase p34-cdc2: significant decrease
[1]; catalase-treated vs controls, data not shown
  protein levels of cyclins D1, E, A, cdk2, p53, p21WAF1/Cip1, p27: did not decrease
NF-κB [2]
  constitutive nuclear DNA binding activity for NF-κB: suppressed
NF-κB [3]
  constitutive nuclear DNA binding activity for NF-κB: suppressed

From patent US20070142462A1, “Method of Treating Cancer” (The University of Utah, priority 2000, published 2007)
